ChEMBL document CHEMBL1201861, “Genomics of Drug Sensitity in Cancer screening data, Wellcome Trust Sanger Institute”

Tested on: COR-L279
Assay: SANGER: Inhibition of human COR-L279 cell growth in a cell viability assay.
Assay type: functional, cell-based
Details: Homo sapiens, COR-L279

Structure (SMILES)	IC50 [nM]
CO[C@@H]1[C@H](N(C)C(=O)c2ccccc2)C[C@H]2O[C@]1(C)n1c3ccccc3c3c4c(c5c6ccccc6n2c5c31)C(=O)NC4 [MIDOSTAURIN]	> 512

Tested on: Calu-3;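 further: growth inhibition of human Calu-3 cells, determined with a cell viability assay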
Assay: cells
Assay type: functional, cell-based
Details: Homo sapiens
Description: SANGER: Inhibition of human Calu-3 cell growth in a cell viability assay.

Structure (SMILES)	IC50 [nM]
NC(=O)Nc1cc(-c2cccc(F)c2)sc1C(=O)N[C@H]1CCCNC1 [AZD-7762]	> 2000

Tested on: EFO-27;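 further: growth inhibition of EFO-27 cells, read out with a cell viability assay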
Assay: cells
Assay type: functional, cell-based
Details: Homo sapiens
Description: SANGER: Inhibition of human EFO-27 cell growth in a cell viability assay.

Structure (SMILES)	IC50 [nM]
NC(=O)Nc1cc(-c2cccc(F)c2)sc1C(=O)N[C@H]1CCCNC1 [AZD-7762]	430

Tested on: FaDu;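 further: cell viability readout of growth inhibition in FaDu cells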
Assay: cells
Assay type: functional, cell-based
Details: Homo sapiens
Description: SANGER: Inhibition of human FADU cell growth in a cell viability assay.

Structure (SMILES)	IC50 [nM]
NC(=O)Nc1cc(-c2cccc(F)c2)sc1C(=O)N[C@H]1CCCNC1 [AZD-7762]	412
CO[C@@H]1[C@H](N(C)C(=O)c2ccccc2)C[C@H]2O[C@]1(C)n1c3ccccc3c3c4c(c5c6ccccc6n2c5c31)C(=O)NC4 [MIDOSTAURIN]	> 512

Tested on: GAMG;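 further: cell growth inhibition measured by a viability assay in the GAMG human cell line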
Assay: cells
Assay type: functional, cell-based
Details: Homo sapiens
Description: SANGER: Inhibition of human GAMG cell growth in a cell viability assay.

Structure (SMILES)	IC50 [nM]
NC(=O)Nc1cc(-c2cccc(F)c2)sc1C(=O)N[C@H]1CCCNC1 [AZD-7762]	386

Tested on: HCC1395;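 further: growth inhibition of HCC1395 cells, read out by a cell viability assay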
Assay: cells
Assay type: functional, cell-based
Details: Homo sapiens
Description: SANGER: Inhibition of human HCC1395 cell growth in a cell viability assay.

Structure (SMILES)	IC50 [nM]
NC(=O)Nc1cc(-c2cccc(F)c2)sc1C(=O)N[C@H]1CCCNC1 [AZD-7762]	271
CO[C@@H]1[C@H](N(C)C(=O)c2ccccc2)C[C@H]2O[C@]1(C)n1c3ccccc3c3c4c(c5c6ccccc6n2c5c31)C(=O)NC4 [MIDOSTAURIN]	84.3

Tested on: HCC1954;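 further: growth inhibition of human HCC1954 cells, read out with a cell viability assay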
Assay: cells
Assay type: functional, cell-based
Details: Homo sapiens
Description: SANGER: Inhibition of human HCC1954 cell growth in a cell viability assay.

Structure (SMILES)	IC50 [nM]
NC(=O)Nc1cc(-c2cccc(F)c2)sc1C(=O)N[C@H]1CCCNC1 [AZD-7762]	> 2000

Tested on: HCT-15;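 further: cell viability readout, IC50 reflecting suppression of HCT-15 cell growth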
Assay: cells
Assay type: functional, cell-based
Details: Homo sapiens
Description: SANGER: Inhibition of human HCT-15 cell growth in a cell viability assay.

Structure (SMILES)	IC50 [nM]
NC(=O)Nc1cc(-c2cccc(F)c2)sc1C(=O)N[C@H]1CCCNC1 [AZD-7762]	> 2000
CO[C@@H]1[C@H](N(C)C(=O)c2ccccc2)C[C@H]2O[C@]1(C)n1c3ccccc3c3c4c(c5c6ccccc6n2c5c31)C(=O)NC4 [MIDOSTAURIN]	334

Tested on: HGC-27;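 further: growth inhibition of human HGC-27 cells, read out in a cell viability assay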
Assay: cells
Assay type: functional, cell-based
Details: Homo sapiens
Description: SANGER: Inhibition of human HGC-27 cell growth in a cell viability assay.

Structure (SMILES)	IC50 [nM]
NC(=O)Nc1cc(-c2cccc(F)c2)sc1C(=O)N[C@H]1CCCNC1 [AZD-7762]	491
CO[C@@H]1[C@H](N(C)C(=O)c2ccccc2)C[C@H]2O[C@]1(C)n1c3ccccc3c3c4c(c5c6ccccc6n2c5c31)C(=O)NC4 [MIDOSTAURIN]	> 512

Tested on: HLE;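 further: growth inhibition of human HLE cells, read out by a cell viability assay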
Assay: cells
Assay type: functional, cell-based
Details: Homo sapiens
Description: SANGER: Inhibition of human HLE cell growth in a cell viability assay.

Structure (SMILES)	IC50 [nM]
NC(=O)Nc1cc(-c2cccc(F)c2)sc1C(=O)N[C@H]1CCCNC1 [AZD-7762]	> 2000

Tested on: HN
Assay: cells
Assay type: functional, cell-based
Details: Homo sapiens
Description: SANGER: Inhibition of human HN cell growth in a cell viability assay.

Structure (SMILES)	IC50 [nM]
NC(=O)Nc1cc(-c2cccc(F)c2)sc1C(=O)N[C@H]1CCCNC1 [AZD-7762]	846

Tested on: HTC-C3;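 further: inhibition of cell growth, read out with a cell viability assay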
Assay: cells
Assay type: functional, cell-based
Details: Homo sapiens
Description: SANGER: Inhibition of human HTC-C3 cell growth in a cell viability assay.

Structure (SMILES)	IC50 [nM]
NC(=O)Nc1cc(-c2cccc(F)c2)sc1C(=O)N[C@H]1CCCNC1 [AZD-7762]	835

Tested on: HuCCT-1;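 further: growth inhibition of HuCCT-1 cells, read out by a cell viability assay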
Assay: cells
Assay type: functional, cell-based, HuCCT1
Details: Homo sapiens
Description: SANGER: Inhibition of human HuCCT1 cell growth in a cell viability assay.

Structure (SMILES)	IC50 [nM]
NC(=O)Nc1cc(-c2cccc(F)c2)sc1C(=O)N[C@H]1CCCNC1 [AZD-7762]	708
CO[C@@H]1[C@H](N(C)C(=O)c2ccccc2)C[C@H]2O[C@]1(C)n1c3ccccc3c3c4c(c5c6ccccc6n2c5c31)C(=O)NC4 [MIDOSTAURIN]	179

Tested on: HuP-T3;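 further: HuP-T3 cell growth inhibition, read out with a cell viability assay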
Assay: cells
Assay type: functional, cell-based
Details: Homo sapiens
Description: SANGER: Inhibition of human HuP-T3 cell growth in a cell viability assay.

Structure (SMILES)	IC50 [nM]
NC(=O)Nc1cc(-c2cccc(F)c2)sc1C(=O)N[C@H]1CCCNC1 [AZD-7762]	87.1
CO[C@@H]1[C@H](N(C)C(=O)c2ccccc2)C[C@H]2O[C@]1(C)n1c3ccccc3c3c4c(c5c6ccccc6n2c5c31)C(=O)NC4 [MIDOSTAURIN]	> 512

Tested on: IM-9
Assay: SANGER: Inhibition of human IM-9 cell growth in a cell viability assay.
Assay type: functional, cell-based
Details: Homo sapiens, IM-9

Structure (SMILES)	IC50 [nM]
CO[C@@H]1[C@H](N(C)C(=O)c2ccccc2)C[C@H]2O[C@]1(C)n1c3ccccc3c3c4c(c5c6ccccc6n2c5c31)C(=O)NC4 [MIDOSTAURIN]	> 512

Tested on: KYSE-270;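 further: cell growth inhibition measured with a viability assay in the human KYSE-270 line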
Assay: cells
Assay type: functional, cell-based
Details: Homo sapiens
Description: SANGER: Inhibition of human KYSE-270 cell growth in a cell viability assay.

Structure (SMILES)	IC50 [nM]
NC(=O)Nc1cc(-c2cccc(F)c2)sc1C(=O)N[C@H]1CCCNC1 [AZD-7762]	226
CO[C@@H]1[C@H](N(C)C(=O)c2ccccc2)C[C@H]2O[C@]1(C)n1c3ccccc3c3c4c(c5c6ccccc6n2c5c31)C(=O)NC4 [MIDOSTAURIN]	168

Tested on: LCLC-103H cell line
Assay: cells
Assay type: functional, cell-based
Details: Homo sapiens
Description: SANGER: Inhibition of human LCLC-103H cell growth in a cell viability assay.

Structure (SMILES)	IC50 [nM]
NC(=O)Nc1cc(-c2cccc(F)c2)sc1C(=O)N[C@H]1CCCNC1 [AZD-7762]	980

Tested on: MC-IXC;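 further: growth inhibition of MC-IXC cells, read out with a cell viability assay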
Assay: cells
Assay type: functional, cell-based
Details: Homo sapiens
Description: SANGER: Inhibition of human MC-IXC cell growth in a cell viability assay.

Structure (SMILES)	IC50 [nM]
NC(=O)Nc1cc(-c2cccc(F)c2)sc1C(=O)N[C@H]1CCCNC1 [AZD-7762]	128
CO[C@@H]1[C@H](N(C)C(=O)c2ccccc2)C[C@H]2O[C@]1(C)n1c3ccccc3c3c4c(c5c6ccccc6n2c5c31)C(=O)NC4 [MIDOSTAURIN]	266

Tested on: MDA-MB-157
Assay: cells
Assay type: functional, cell-based
Details: Homo sapiens
Description: SANGER: Inhibition of human MDA-MB-157 cell growth in a cell viability assay.

Structure (SMILES)	IC50 [nM]
NC(=O)Nc1cc(-c2cccc(F)c2)sc1C(=O)N[C@H]1CCCNC1 [AZD-7762]	86.6

Tested on: MEL-HO
Assay: cells
Assay type: functional, cell-based
Details: Homo sapiens
Description: SANGER: Inhibition of human MEL-HO cell growth in a cell viability assay.

Structure (SMILES)	IC50 [nM]
NC(=O)Nc1cc(-c2cccc(F)c2)sc1C(=O)N[C@H]1CCCNC1 [AZD-7762]	979

Tested on: MKN-1;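 further: growth inhibition of human MKN1 cells, read out by a cell viability measurement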
Assay: cells
Assay type: functional, cell-based
Details: Homo sapiens
Description: SANGER: Inhibition of human MKN1 cell growth in a cell viability assay.

Structure (SMILES)	IC50 [nM]
NC(=O)Nc1cc(-c2cccc(F)c2)sc1C(=O)N[C@H]1CCCNC1 [AZD-7762]	350

Tested on: MKN-45;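 further: growth inhibition of human MKN-45 cells, measured with a cell viability assay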
Assay: cells
Assay type: functional, cell-based
Details: Homo sapiens
Description: SANGER: Inhibition of human MKN45 cell growth in a cell viability assay.

Structure (SMILES)	IC50 [nM]
NC(=O)Nc1cc(-c2cccc(F)c2)sc1C(=O)N[C@H]1CCCNC1 [AZD-7762]	280

Tested on: NCI-H1437;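 further: growth inhibition of human NCI-H1437 cells, read out by a cell viability assay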
Assay: cells
Assay type: functional, cell-based
Details: Homo sapiens
Description: SANGER: Inhibition of human NCI-H1437 cell growth in a cell viability assay.

Structure (SMILES)	IC50 [nM]
NC(=O)Nc1cc(-c2cccc(F)c2)sc1C(=O)N[C@H]1CCCNC1 [AZD-7762]	> 2000
CO[C@@H]1[C@H](N(C)C(=O)c2ccccc2)C[C@H]2O[C@]1(C)n1c3ccccc3c3c4c(c5c6ccccc6n2c5c31)C(=O)NC4 [MIDOSTAURIN]	> 512

Tested on: NCI-H1703;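 further: growth inhibition of NCI-H1703 cells, read out via a cell viability assay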
Assay: cells
Assay type: functional, cell-based
Details: Homo sapiens
Description: SANGER: Inhibition of human NCI-H1703 cell growth in a cell viability assay.

Structure (SMILES)	IC50 [nM]
NC(=O)Nc1cc(-c2cccc(F)c2)sc1C(=O)N[C@H]1CCCNC1 [AZD-7762]	6.43

Tested on: NCI-H2405;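 further: growth inhibition of the human cell line, read out with a cell viability assay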
Assay: cells
Assay type: functional, cell-based
Details: Homo sapiens
Description: SANGER: Inhibition of human NCI-H2405 cell growth in a cell viability assay.

Structure (SMILES)	IC50 [nM]
NC(=O)Nc1cc(-c2cccc(F)c2)sc1C(=O)N[C@H]1CCCNC1 [AZD-7762]	> 2000
CO[C@@H]1[C@H](N(C)C(=O)c2ccccc2)C[C@H]2O[C@]1(C)n1c3ccccc3c3c4c(c5c6ccccc6n2c5c31)C(=O)NC4 [MIDOSTAURIN]	351

Tested on: NCI-H510A;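 further: growth inhibition of NCI-H510A cells, read out with a cell viability assay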
Assay: cells
Assay type: functional, cell-based, Homo sapiens
Details: Homo sapiens, NCI-H510A
Description: SANGER: Inhibition of human NCI-H510A cell growth in a cell viability assay.

Structure (SMILES)	IC50 [nM]
NC(=O)Nc1cc(-c2cccc(F)c2)sc1C(=O)N[C@H]1CCCNC1 [AZD-7762]	246

Tested on: NCI-H630;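 further: growth inhibition of NCI-H630 cells, read out with a cell viability assay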
Assay: cells
Assay type: functional, cell-based
Details: Homo sapiens
Description: SANGER: Inhibition of human NCI-H630 cell growth in a cell viability assay.

Structure (SMILES)	IC50 [nM]
NC(=O)Nc1cc(-c2cccc(F)c2)sc1C(=O)N[C@H]1CCCNC1 [AZD-7762]	1790
CO[C@@H]1[C@H](N(C)C(=O)c2ccccc2)C[C@H]2O[C@]1(C)n1c3ccccc3c3c4c(c5c6ccccc6n2c5c31)C(=O)NC4 [MIDOSTAURIN]	> 512

Tested on: NCI-H810;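 further: IC50 reflects inhibition of cancer cell line growth, read out with a cell viability assay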
Assay: cells
Assay type: functional, cell-based
Details: Homo sapiens
Description: SANGER: Inhibition of human NCI-H810 cell growth in a cell viability assay.

Structure (SMILES)	IC50 [nM]
NC(=O)Nc1cc(-c2cccc(F)c2)sc1C(=O)N[C@H]1CCCNC1 [AZD-7762]	> 2000
CO[C@@H]1[C@H](N(C)C(=O)c2ccccc2)C[C@H]2O[C@]1(C)n1c3ccccc3c3c4c(c5c6ccccc6n2c5c31)C(=O)NC4 [MIDOSTAURIN]	210

Tested on: NY
Assay: cells
Assay type: functional, cell-based
Details: Homo sapiens
Description: SANGER: Inhibition of human NY cell growth in a cell viability assay.

Structure (SMILES)	IC50 [nM]
NC(=O)Nc1cc(-c2cccc(F)c2)sc1C(=O)N[C@H]1CCCNC1 [AZD-7762]	> 2000

Tested on: RD
Assay: cells
Assay type: functional, cell-based
Details: Homo sapiens
Description: SANGER: Inhibition of human RD cell growth in a cell viability assay.

Structure (SMILES)	IC50 [nM]
NC(=O)Nc1cc(-c2cccc(F)c2)sc1C(=O)N[C@H]1CCCNC1 [AZD-7762]	> 2000

Tested on: RMG-I;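 further: growth inhibition of human RMG-I cells, read out with a cell viability assay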
Assay: cells
Assay type: functional, cell-based
Details: Homo sapiens
Description: SANGER: Inhibition of human RMG-I cell growth in a cell viability assay.

Structure (SMILES)	IC50 [nM]
NC(=O)Nc1cc(-c2cccc(F)c2)sc1C(=O)N[C@H]1CCCNC1 [AZD-7762]	1910

Tested on: SNU-449
Assay: cells
Assay type: functional, cell-based
Details: Homo sapiens
Description: SANGER: Inhibition of human SNU-449 cell growth in a cell viability assay.

Structure (SMILES)	IC50 [nM]
NC(=O)Nc1cc(-c2cccc(F)c2)sc1C(=O)N[C@H]1CCCNC1 [AZD-7762]	> 2000

Tested on: SW1463;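 further: growth inhibition of SW1463 cells, determined with a cell viability assay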
Assay: cells
Assay type: functional, cell-based
Details: Homo sapiens
Description: SANGER: Inhibition of human SW1463 cell growth in a cell viability assay.

Structure (SMILES)	IC50 [nM]
NC(=O)Nc1cc(-c2cccc(F)c2)sc1C(=O)N[C@H]1CCCNC1 [AZD-7762]	> 2000

Tested on: SW1710;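 further: growth inhibition of SW1710 cells, determined with a cell viability assay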
Assay: cells
Assay type: functional, cell-based
Details: Homo sapiens
Description: SANGER: Inhibition of human SW1710 cell growth in a cell viability assay.

Structure (SMILES)	IC50 [nM]
NC(=O)Nc1cc(-c2cccc(F)c2)sc1C(=O)N[C@H]1CCCNC1 [AZD-7762]	640

Tested on: SW1990
Assay: cells
Assay type: functional, cell-based
Details: Homo sapiens
Description: SANGER: Inhibition of human SW1990 cell growth in a cell viability assay.

Structure (SMILES)	IC50 [nM]
NC(=O)Nc1cc(-c2cccc(F)c2)sc1C(=O)N[C@H]1CCCNC1 [AZD-7762]	384

Tested on: SW626;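 further: growth inhibition of SW626 cells, measured with a cell viability assay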
Assay: cells
Assay type: functional, cell-based
Details: Homo sapiens
Description: SANGER: Inhibition of human SW626 cell growth in a cell viability assay.

Structure (SMILES)	IC50 [nM]
NC(=O)Nc1cc(-c2cccc(F)c2)sc1C(=O)N[C@H]1CCCNC1 [AZD-7762]	506

Tested on: SW780;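 further: growth inhibition of the cells, read out with a cell viability assay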
Assay: cells
Assay type: functional, cell-based
Details: Homo sapiens
Description: SANGER: Inhibition of human SW780 cell growth in a cell viability assay.

Structure (SMILES)	IC50 [nM]
NC(=O)Nc1cc(-c2cccc(F)c2)sc1C(=O)N[C@H]1CCCNC1 [AZD-7762]	1200

Tested on: T-24;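 further: growth inhibition of T-24 cells, read out with a cell viability assay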
Assay: cells
Assay type: functional, cell-based
Details: Homo sapiens
Description: SANGER: Inhibition of human T-24 cell growth in a cell viability assay.

Structure (SMILES)	IC50 [nM]
NC(=O)Nc1cc(-c2cccc(F)c2)sc1C(=O)N[C@H]1CCCNC1 [AZD-7762]	370

Tested on: A204;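 further: growth inhibition of human A204 cells, read out with a cell viability assay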
Assay: cells
Assay type: functional, cell-based
Details: Homo sapiens
Description: SANGER: Inhibition of human A204 cell growth in a cell viability assay.

Structure (SMILES)	IC50 [nM]
NC(=O)Nc1cc(-c2cccc(F)c2)sc1C(=O)N[C@H]1CCCNC1 [AZD-7762]	8.56

Tested on: A-427;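 further: growth inhibition of human A-427 cells, read out by a cell viability assay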
Assay: cells
Assay type: functional, cell-based
Details: Homo sapiens
Description: SANGER: Inhibition of human A427 cell growth in a cell viability assay.

Structure (SMILES)	IC50 [nM]
NC(=O)Nc1cc(-c2cccc(F)c2)sc1C(=O)N[C@H]1CCCNC1 [AZD-7762]	198

Tested on: C3A;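 further: growth inhibition of C3A human cells, quantified with a cell viability readout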
Assay: cells
Assay type: functional, cell-based
Details: Homo sapiens
Description: SANGER: Inhibition of human C3A cell growth in a cell viability assay.

Structure (SMILES)	IC50 [nM]
NC(=O)Nc1cc(-c2cccc(F)c2)sc1C(=O)N[C@H]1CCCNC1 [AZD-7762]	> 2000

Tested on: CAL-39;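 further: cell viability assay measuring growth inhibition of CAL-39 cells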
Assay: cells
Assay type: functional, cell-based
Details: Homo sapiens
Description: SANGER: Inhibition of human CAL-39 cell growth in a cell viability assay.

Structure (SMILES)	IC50 [nM]
NC(=O)Nc1cc(-c2cccc(F)c2)sc1C(=O)N[C@H]1CCCNC1 [AZD-7762]	> 2000

Tested on: UO-31
Assay: cells
Assay type: functional, cell-based
Details: Homo sapiens
Description: SANGER: Inhibition of human U031 cell growth in a cell viability assay.

Structure (SMILES)	IC50 [nM]
NC(=O)Nc1cc(-c2cccc(F)c2)sc1C(=O)N[C@H]1CCCNC1 [AZD-7762]	482

Tested on: U-251;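 further: growth inhibition of human U-251 cells, read out through a cell viability assay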
Assay: cells
Assay type: functional, cell-based
Details: Homo sapiens
Description: SANGER: Inhibition of human U251 cell growth in a cell viability assay.

Structure (SMILES)	IC50 [nM]
NC(=O)Nc1cc(-c2cccc(F)c2)sc1C(=O)N[C@H]1CCCNC1 [AZD-7762]	> 2000

Tested on: CAMA-1;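 further: growth inhibition of CAMA-1 cells, read out with a cell viability assay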
Assay: cells
Assay type: functional, cell-based
Details: Homo sapiens
Description: SANGER: Inhibition of human CAMA-1 cell growth in a cell viability assay.

Structure (SMILES)	IC50 [nM]
NC(=O)Nc1cc(-c2cccc(F)c2)sc1C(=O)N[C@H]1CCCNC1 [AZD-7762]	> 2000

Tested on: CAPAN-1;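 further: growth suppression of CAPAN-1 cells, read out by a cell viability assay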
Assay: cells
Assay type: functional, cell-based
Details: Homo sapiens
Description: SANGER: Inhibition of human CAPAN-1 cell growth in a cell viability assay.

Structure (SMILES)	IC50 [nM]
NC(=O)Nc1cc(-c2cccc(F)c2)sc1C(=O)N[C@H]1CCCNC1 [AZD-7762]	> 2000
